Assay results taken from paper PMC6007841 (Journal of medicinal chemistry, 2018).
Values joined by “and” are separate entries in the source; they are usually repeats but may differ in a detail not shown here. Identical values can stand only once. Bridge positions count the residues as written; N and C are the ends. Ends that are not written are not given here. Peptide text beside a SMILES is read from it.

Key:
mMC1R = mMC1R (Mus musculus, UniProt Q01727); assay: cAMP AlphaScreen agonist assay, mMC1R; conditions: for Agonist efficacy (in words): mMC1R, up to 100 μM, HEK293 cells, cAMP
Sequence of mMC1R (Q01727 whole entry): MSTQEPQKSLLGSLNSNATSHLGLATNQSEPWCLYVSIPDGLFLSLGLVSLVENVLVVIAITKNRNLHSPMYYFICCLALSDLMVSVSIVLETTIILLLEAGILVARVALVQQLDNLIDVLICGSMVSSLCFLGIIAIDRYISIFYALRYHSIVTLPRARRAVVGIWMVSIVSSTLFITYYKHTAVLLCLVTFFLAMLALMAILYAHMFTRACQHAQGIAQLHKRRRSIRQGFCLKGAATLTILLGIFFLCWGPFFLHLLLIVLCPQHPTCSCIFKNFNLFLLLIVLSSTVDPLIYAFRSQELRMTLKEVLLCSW

mMC5R = mMC5R (Mus musculus, UniProt P41149); assay: cAMP AlphaScreen agonist assay, mMC5R; conditions: for Agonist efficacy (in words): mMC5R, up to 100 μM, HEK293 cells, cAMP
Sequence of mMC5R (P41149 whole entry): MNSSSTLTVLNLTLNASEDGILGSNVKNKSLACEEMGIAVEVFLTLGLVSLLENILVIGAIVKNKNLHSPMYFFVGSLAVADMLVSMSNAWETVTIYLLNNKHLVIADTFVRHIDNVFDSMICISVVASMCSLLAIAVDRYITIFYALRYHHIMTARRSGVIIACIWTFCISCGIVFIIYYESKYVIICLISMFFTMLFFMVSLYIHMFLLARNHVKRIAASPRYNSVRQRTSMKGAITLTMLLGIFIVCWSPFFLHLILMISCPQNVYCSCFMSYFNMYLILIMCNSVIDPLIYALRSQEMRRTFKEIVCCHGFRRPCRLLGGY

hMC3R = hMC3R (Homo sapiens, UniProt P41968); assay: cAMP AlphaScreen agonist assay, hMC3R; conditions: for Agonist efficacy (in words): hMC3R, up to 100 μM, HEK293 cells, cAMP
Sequence of hMC3R (P41968 whole entry): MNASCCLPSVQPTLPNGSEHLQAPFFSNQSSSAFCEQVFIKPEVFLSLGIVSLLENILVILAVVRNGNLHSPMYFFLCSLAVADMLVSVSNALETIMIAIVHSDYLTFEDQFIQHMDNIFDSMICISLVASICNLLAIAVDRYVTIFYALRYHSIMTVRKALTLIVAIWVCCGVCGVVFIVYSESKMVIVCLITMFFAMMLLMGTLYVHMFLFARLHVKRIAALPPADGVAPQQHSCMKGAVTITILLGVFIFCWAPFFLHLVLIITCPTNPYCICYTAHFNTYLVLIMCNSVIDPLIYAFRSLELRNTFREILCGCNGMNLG

mMC3R = mMC3R (Mus musculus, UniProt P33033); assay: cAMP AlphaScreen agonist assay, mMC3R; conditions: HEK293 cells; for Agonist efficacy (in words): up to 100 μM
Sequence of mMC3R (P33033 whole entry): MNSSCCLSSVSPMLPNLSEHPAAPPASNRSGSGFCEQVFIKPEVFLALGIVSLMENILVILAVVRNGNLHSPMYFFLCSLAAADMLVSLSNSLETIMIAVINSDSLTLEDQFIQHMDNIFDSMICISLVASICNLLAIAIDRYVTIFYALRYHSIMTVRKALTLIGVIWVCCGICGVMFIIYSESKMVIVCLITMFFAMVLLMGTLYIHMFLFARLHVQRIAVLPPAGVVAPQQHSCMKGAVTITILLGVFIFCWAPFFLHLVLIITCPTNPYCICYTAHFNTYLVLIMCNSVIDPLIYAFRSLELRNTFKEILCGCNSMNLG

mMC4R [1] = target: T1, mMC4R (Mus musculus, UniProt P56450); assay: cAMP AlphaScreen agonist assay, mMC4R
T1 sequence (P56450 whole entry): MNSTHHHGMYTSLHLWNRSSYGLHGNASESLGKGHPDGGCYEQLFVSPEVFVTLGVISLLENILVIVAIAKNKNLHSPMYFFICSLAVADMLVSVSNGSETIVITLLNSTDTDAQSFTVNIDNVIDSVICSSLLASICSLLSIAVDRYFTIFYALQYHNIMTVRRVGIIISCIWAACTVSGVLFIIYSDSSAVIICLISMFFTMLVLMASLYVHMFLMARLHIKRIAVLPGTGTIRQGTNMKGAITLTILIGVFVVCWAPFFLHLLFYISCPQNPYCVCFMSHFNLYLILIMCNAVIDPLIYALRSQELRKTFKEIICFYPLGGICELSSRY

hMC1R [2] = target: T2, hMC1R (Homo sapiens, UniProt Q01726); assay: cAMP AlphaScreen agonist assay, hMC1R; conditions: for Agonist efficacy (in words): up to 100 μM, HEK293 cells, cAMP
T2 sequence (Q01726 whole entry): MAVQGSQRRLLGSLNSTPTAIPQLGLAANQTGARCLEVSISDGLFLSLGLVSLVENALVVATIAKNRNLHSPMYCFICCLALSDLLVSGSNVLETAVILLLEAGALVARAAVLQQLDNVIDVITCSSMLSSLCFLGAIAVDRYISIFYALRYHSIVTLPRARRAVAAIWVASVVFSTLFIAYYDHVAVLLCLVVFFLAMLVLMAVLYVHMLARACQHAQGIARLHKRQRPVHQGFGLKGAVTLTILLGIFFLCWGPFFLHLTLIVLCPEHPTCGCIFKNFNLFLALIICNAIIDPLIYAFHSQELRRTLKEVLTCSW

hMC4R [3] = target: T3, hMC4R (Homo sapiens, UniProt P32245); assay: cAMP AlphaScreen agonist assay, hMC4R; conditions: for Agonist efficacy (in words): hMC4R, up to 100 μM, HEK293 cells, cAMP
T3 sequence (P32245 whole entry): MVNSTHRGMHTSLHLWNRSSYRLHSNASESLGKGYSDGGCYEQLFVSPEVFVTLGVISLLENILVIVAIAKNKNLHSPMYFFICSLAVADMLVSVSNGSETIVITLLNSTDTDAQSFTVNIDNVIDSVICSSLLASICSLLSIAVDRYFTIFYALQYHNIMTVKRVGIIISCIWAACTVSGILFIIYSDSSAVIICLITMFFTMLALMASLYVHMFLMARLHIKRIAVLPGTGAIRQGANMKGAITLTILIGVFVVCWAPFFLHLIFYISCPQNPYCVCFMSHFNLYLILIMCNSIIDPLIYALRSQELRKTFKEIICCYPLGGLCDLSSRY

hMC5R = hMC5R (Homo sapiens, UniProt P33032); assay: cAMP AlphaScreen agonist assay, hMC5R; conditions: for Agonist efficacy (in words): hMC5R, up to 100 μM, HEK293 cells, cAMP
Sequence of hMC5R (P33032 whole entry): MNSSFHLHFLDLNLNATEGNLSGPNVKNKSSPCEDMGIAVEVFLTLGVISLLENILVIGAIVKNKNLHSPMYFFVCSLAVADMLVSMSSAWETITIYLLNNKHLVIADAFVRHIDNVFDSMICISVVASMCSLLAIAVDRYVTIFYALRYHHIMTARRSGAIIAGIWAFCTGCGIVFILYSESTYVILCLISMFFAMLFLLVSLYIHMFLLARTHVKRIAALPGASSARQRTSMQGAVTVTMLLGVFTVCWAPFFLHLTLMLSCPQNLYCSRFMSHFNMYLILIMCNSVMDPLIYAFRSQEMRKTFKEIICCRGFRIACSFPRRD

mMC4R [4] = target: T1, mMC4R; assay: Competitive displacement binding, [125I]-NDP-MSH, mMC4R; conditions: HEK293 cells
hMC1R [5] = target: T2, hMC1R; assay: Competitive displacement binding, [125I]-NDP-MSH, hMC1R; conditions: HEK293 cells
hMC4R [6] = target: T3, hMC4R; assay: Competitive displacement binding, [125I]-NDP-MSH, hMC4R; conditions: HEK293 cells
mice = assay: Fasting feeding paradigm after central administration in cannulated male mice; assay type: in vivo, mouse; conditions: 100 μg at start of 22 h fast, vs saline
hMC1R [7] = target: T2, hMC1R; conditions: human MC1R; HEK293 cells; cited from earlier work
melanocortin receptors = assay: cAMP agonist pharmacology at the melanocortin receptors; assay type: cell-based; conditions: cAMP based
[8] = HEK293, read-out: Maximal stimulatory response at 100 μM

GIINTLQKYYCRVRGGRCAVLSCLPKEEQIGKCSTRGRKCCRRKK (cysteines drawn unpaired) [hBD3red]
EC50 (mMC1R): > 100 µM | Agonist efficacy (in words) (mMC1R): unable to stimulate | EC50 (mMC5R): > 100 µM | Agonist efficacy (in words) (mMC5R): unable to stimulate | EC50 (hMC3R): > 100 µM | Agonist efficacy (in words) (hMC3R): unable to stimulate

FLPKTLRKFFCRIRGGRCAVLNCLGKEEQIGRCSNSGRKCCRKKK (cysteines drawn unpaired) [mBD3*red]
Emax at 100 µM (mMC1R; [8]): 40% | Maximal stimulatory response at 100 μM (mMC3R; 100 μM, relative to maximal NDP-MSH signal): 35% @ 100 μM | Emax at 100 µM (mMC4R [1]; [8]): 40% | Emax at 100 µM (mMC5R; [8]): 35% | Emax at 100 µM (hMC1R [2]; [8]): 45% | EC50 (hMC3R): > 100 µM | Emax at 100 µM (hMC4R [3]; [8]): 50% | Emax at 100 µM (hMC5R; [8]): 40%

CC(C)C[C@@H]1NC(=O)[C@@H]2CSSC[C@@H]3NC(=O)[C@H]([C@@H](C)O)NC(=O)CNC(=O)[C@H](CCC(N)=O)NC(=O)[C@H](CC(C)C)NC(=O)[C@H](CCCCN)NC(=O)[C@H]([C@@H](C)O)NC(=O)[C@H](CC(N)=O)NC(=O)[C@H](CO)NC(=O)[C@@H]4CCCN4C(=O)[C@H](CSSC[C@@H](C(=O)N[C@@H](CCCCN)C(=O)N[C@@H](CO)C(=O)O)NC(=O)[C@H](CSSC[C@H](NC(=O)[C@H](CCCCN)NC(=O)[C@H](Cc4ccc(O)cc4)NC(=O)[C@H](CCC(N)=O)NC(=O)[C@@H](N)CC(=O)O)C(=O)N[C@@H](CC(C)C)C(=O)N[C@@H](CCC(N)=O)C(=O)N[C@@H](Cc4c[nH]cn4)C(=O)NCC(=O)NCC(=O)N[C@@H](Cc4ccccc4)C(=O)N2)NC(=O)[C@H](CC(N)=O)NC(=O)[C@@H]2CCCN2C(=O)[C@H](CCCCN)NC(=O)[C@H](CC(=O)O)NC(=O)[C@@H]2CCCN2C(=O)[C@H](CCCCN)NC3=O)NC(=O)[C@H](CO)NC(=O)[C@H](CO)NC(=O)[C@H](CCCNC(=N)N)NC1=O [mBD1] (H-DQYKCLQHGGFCLRSSCPSNTKLQGTCKPDKPNCCKS-OH; disulfide 5-34, 12-27, 17-35; N-terminus and C-terminus assumed)
Displacement of radiolabeled NDP-MSH (in words) (mMC4R [4]): unable to displace | Displacement of radiolabeled NDP-MSH (in words) (hMC1R [5]): unable to displace | Displacement of radiolabeled NDP-MSH (in words) (hMC4R [6]): unable to displace | Body weight, specific time points (mice): no significance was observed at specific time points | Cumulative food intake, follow-up analysis at specific time points (mice): follow-up analysis did not result in significance at a specific time point | Agonist efficacy (in words) (mMC1R): full agonist efficacy with micromolar potency | Agonist efficacy (in words) (mMC3R): full agonist efficacy with micromolar potency | Agonist efficacy (in words) (mMC5R): full agonist efficacy with micromolar potency | Agonist efficacy (in words) (hMC1R [2]; hMC1R): full agonist efficacy with micromolar potency | Agonist efficacy (in words) (hMC3R): full agonist efficacy with micromolar potency | Agonist efficacy (in words) (hMC4R [3]): full agonist efficacy with micromolar potency | Agonist efficacy (in words) (hMC5R): no activity

CC[C@H](C)[C@@H]1NC(=O)[C@H](CCCCN)NC(=O)[C@H]([C@@H](C)O)NC(=O)[C@H](Cc2ccccc2)NC(=O)[C@H]([C@@H](C)CC)NC(=O)[C@@H]2CCCN2C(=O)[C@@H]2CSSC[C@@H](C(=O)N[C@@H](CCCCN)C(=O)O)NC(=O)[C@@H]3CSSC[C@H](NC(=O)[C@H](CC(N)=O)NC(=O)[C@H](Cc4ccc(O)cc4)NC(=O)[C@H](Cc4c[nH]cn4)NC(=O)[C@@H](N)CC(=O)O)C(=O)N[C@@H](C(C)C)C(=O)N[C@@H](CO)C(=O)N[C@@H](CO)C(=O)NCC(=O)NCC(=O)N[C@@H](CCC(N)=O)C(=O)N[C@@H](CSSC[C@H](NC(=O)[C@H]([C@@H](C)O)NC(=O)CNC(=O)[C@H](CCC(N)=O)NC1=O)C(=O)N[C@@H](Cc1ccc(O)cc1)C(=O)N[C@@H](CCCNC(=N)N)C(=O)NCC(=O)N[C@@H](CCCCN)C(=O)N[C@@H](C)C(=O)N[C@@H](CCCCN)C(=O)N3)C(=O)N[C@@H](CC(C)C)C(=O)N[C@@H](Cc1ccc(O)cc1)C(=O)N[C@@H](CO)C(=O)N[C@@H](C)C(=O)N2 [hBD1] (H-DHYNCVSSGGQCLYSACPIFTKIQGTCYRGKAKCCK-OH; disulfide 5-34, 12-27, 17-35; N-terminus and C-terminus assumed)
Displacement of radiolabeled NDP-MSH (in words) (hMC4R [6]): not sufficient displacement of the radiolabel to generate an IC50 values | Binding affinity (hMC1R [7]): 30 nM and 30.0 nM | Agonist efficacy (in words) (hMC1R [2]; hMC1R): Full agonist efficacy | Agonist efficacy (in words) (hMC3R): no activity | Agonist efficacy (in words) (hMC4R [3]): Full agonist efficacy | Agonist efficacy (in words) (hMC5R): no activity

CC[C@H](C)[C@H](NC(=O)[C@H](CCCCN)NC(=O)[C@@H](NC(=O)[C@H](Cc1ccccc1)NC(=O)[C@@H](NC(=O)[C@@H]1CCCN1C(=O)[C@H](CS)NC(=O)[C@H](C)NC(=O)[C@H](CO)NC(=O)[C@H](Cc1ccc(O)cc1)NC(=O)[C@H](CC(C)C)NC(=O)[C@H](CS)NC(=O)[C@H](CCC(N)=O)NC(=O)CNC(=O)CNC(=O)[C@H](CO)NC(=O)[C@H](CO)NC(=O)[C@@H](NC(=O)[C@H](CS)NC(=O)[C@H](CC(N)=O)NC(=O)[C@H](Cc1ccc(O)cc1)NC(=O)[C@H](Cc1c[nH]cn1)NC(=O)[C@@H](N)CC(=O)O)C(C)C)[C@@H](C)CC)[C@@H](C)O)C(=O)N[C@@H](CCC(N)=O)C(=O)NCC(=O)N[C@H](C(=O)N[C@@H](CS)C(=O)N[C@@H](Cc1ccc(O)cc1)C(=O)N[C@@H](CCCNC(=N)N)C(=O)NCC(=O)N[C@@H](CCCCN)C(=O)N[C@@H](C)C(=O)N[C@@H](CCCCN)C(=O)N[C@@H](CS)C(=O)N[C@@H](CS)C(=O)N[C@@H](CCCCN)C(=O)O)[C@@H](C)O [hBD1red] (H-DHYNCVSSGGQCLYSACPIFTKIQGTCYRGKAKCCK-OH; N-terminus and C-terminus assumed)
Agonist activity at the melanocortin receptors (in words) (melanocortin receptors): no activity at the remaining receptor subtypes | Agonist efficacy (in words) (hMC1R [2]; hMC1R): partial agonist stimulation | Agonist efficacy (in words) (hMC4R [3]): partial agonist stimulation

FLPKTLRKFFCRIRGGRCAVLNCLGKEEQIGRCSNSGRKCCRKKK (disulfide 11-40, 18-33, 23-41) [mBD3*]
EC50 (hMC3R): > 100 µM

CC(C)C[C@H](NC(=O)[C@H](CS)NC(=O)[C@H](Cc1ccccc1)NC(=O)CNC(=O)CNC(=O)[C@H](Cc1c[nH]cn1)NC(=O)[C@H](CCC(N)=O)NC(=O)[C@H](CC(C)C)NC(=O)[C@H](CS)NC(=O)[C@H](CCCCN)NC(=O)[C@H](Cc1ccc(O)cc1)NC(=O)[C@H](CCC(N)=O)NC(=O)[C@@H](N)CC(=O)O)C(=O)N[C@@H](CCCNC(=N)N)C(=O)N[C@@H](CO)C(=O)N[C@@H](CO)C(=O)N[C@@H](CS)C(=O)N1CCC[C@H]1C(=O)N[C@@H](CO)C(=O)N[C@@H](CC(N)=O)C(=O)N[C@H](C(=O)N[C@@H](CCCCN)C(=O)N[C@@H](CC(C)C)C(=O)N[C@@H](CCC(N)=O)C(=O)NCC(=O)N[C@H](C(=O)N[C@@H](CS)C(=O)N[C@@H](CCCCN)C(=O)N1CCC[C@H]1C(=O)N[C@@H](CC(=O)O)C(=O)N[C@@H](CCCCN)C(=O)N1CCC[C@H]1C(=O)N[C@@H](CC(N)=O)C(=O)N[C@@H](CS)C(=O)N[C@@H](CS)C(=O)N[C@@H](CCCCN)C(=O)N[C@@H](CO)C(=O)O)[C@@H](C)O)[C@@H](C)O [mBD1red] (H-DQYKCLQHGGFCLRSSCPSNTKLQGTCKPDKPNCCKS-OH; N-terminus and C-terminus assumed)
Agonist efficacy (in words) (mMC3R): did not possess agonist activity | Agonist efficacy (in words) (mMC4R [1]; mMC4R, up to 100 μM, HEK293 cells, cAMP): did not possess agonist activity | Lower agonist potency compared to the cyclic mBD1 (hMC1R [2]; hMC1R, EC50 ratio mBD1red vs mBD1): 3 fold | Agonist efficacy (in words) (hMC1R [2]; hMC1R): full agonist | Agonist efficacy (in words) (hMC3R): unable to stimulate | Agonist efficacy (in words) (hMC5R): unable to stimulate
